Test results published in PubChem BioAssay (NCI).
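Values below derive from 48-hour exposures of cells grown in 96-well plates, with endpoints linearly interpolated between the two concentrations bracketing the appropriate inhibition level. GI50 marks 50% less growth. The concentration for full growth arrest is given as TGI.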

Tests used:
Test in all cases: inhibition of tumour cell growth, NCI panel, 48 h
786-0 renal = tested on: 786-0 renal
PC-3 prostate = tested on: PC-3 prostate
TK-10 renal = tested on: TK-10 renal
UACC-62 melanoma = tested on: UACC-62 melanoma
HOP-92 NSCLC = tested on: HOP-92 NSCLC
SNB-75 CNS = tested on: SNB-75 CNS
A549 NSCLC = tested on: A549 NSCLC
SF-268 CNS = tested on: SF-268 CNS
OVCAR-3 ovarian = tested on: OVCAR-3 ovarian
SF-539 CNS = tested on: SF-539 CNS

CCOC(=O)[C@@H](C)C[C@H](Cc1ccccc1)NC(=O)c1csc([C@@H](C[C@H](C(C)C)N(C)C(=O)[C@@H](NC(=O)[C@H]2CCCCN2C)C(C)(C)C)OC(C)=O)n1
GI50 (786-0 renal): < 0.00167 µM
TGI (786-0 renal): > 6.61 µM
GI50 (PC-3 prostate): < 0.00167 µM
TGI (PC-3 prostate): > 16.7 µM
GI50 (TK-10 renal): 0.117 µM
TGI (TK-10 renal): > 16.7 µM
GI50 (UACC-62 melanoma): < 0.00167 µM
TGI (UACC-62 melanoma): > 16.7 µM
GI50 (HOP-92 NSCLC): < 0.00167 µM
TGI (HOP-92 NSCLC): 1.44 µM
GI50 (SNB-75 CNS): < 0.00167 µM
TGI (SNB-75 CNS): 12.6 µM
GI50 (A549 NSCLC): < 0.00167 µM
TGI (A549 NSCLC): > 16.7 µM
GI50 (SF-268 CNS): < 0.00167 µM
TGI (SF-268 CNS): > 16.7 µM
GI50 (OVCAR-3 ovarian): < 0.00167 µM
TGI (OVCAR-3 ovarian): 0.00352 µM
GI50 (SF-539 CNS): < 0.00167 µM
TGI (SF-539 CNS): 0.00437 µM

COc1ccc2c(c1)C=CC(C#N)N2C(=O)c1ccccc1 (stereo not drawn)
GI50 (786-0 renal): < 0.01 µM
TGI (786-0 renal): > 100 µM
GI50 (PC-3 prostate): < 0.01 µM
TGI (PC-3 prostate): > 100 µM
GI50 (TK-10 renal): 33.7 µM
TGI (TK-10 renal): > 100 µM
GI50 (UACC-62 melanoma): < 0.01 µM
TGI (UACC-62 melanoma): > 100 µM
TGI (HOP-92 NSCLC): 45.9 µM
GI50 (SNB-75 CNS): < 0.01 µM
TGI (SNB-75 CNS): > 100 µM
GI50 (A549 NSCLC): < 0.01 µM
TGI (A549 NSCLC): > 100 µM
GI50 (SF-268 CNS): 0.488 µM
TGI (SF-268 CNS): > 100 µM
GI50 (OVCAR-3 ovarian): < 0.01 µM
GI50 (SF-539 CNS): < 0.01 µM
TGI (SF-539 CNS): 0.0238 µM

Cc1c(C(=O)NN)nnn1-c1ccnc2c(C(F)(F)F)cccc12
GI50 (786-0 renal): > 100 µM
TGI (786-0 renal): > 100 µM
GI50 (PC-3 prostate): > 100 µM
TGI (PC-3 prostate): > 100 µM
GI50 (TK-10 renal): > 100 µM
TGI (TK-10 renal): > 100 µM
GI50 (UACC-62 melanoma): > 100 µM
TGI (UACC-62 melanoma): > 100 µM
GI50 (HOP-92 NSCLC): > 100 µM
TGI (HOP-92 NSCLC): > 100 µM
GI50 (SNB-75 CNS): 37.9 µM
TGI (SNB-75 CNS): > 100 µM
GI50 (A549 NSCLC): > 100 µM
TGI (A549 NSCLC): > 100 µM
GI50 (SF-268 CNS): > 100 µM
TGI (SF-268 CNS): > 100 µM
GI50 (OVCAR-3 ovarian): > 100 µM
TGI (OVCAR-3 ovarian): > 100 µM
GI50 (SF-539 CNS): > 100 µM
TGI (SF-539 CNS): > 100 µM

COc1ccc(C2C(C#N)=C(N)OC3=C2CCCc2ccc(F)cc23)cc1OC (stereo not drawn)
GI50 (786-0 renal): 14.7 µM
TGI (786-0 renal): 29.8 µM
GI50 (PC-3 prostate): 19.5 µM
TGI (PC-3 prostate): 38.8 µM
GI50 (TK-10 renal): 28.8 µM
TGI (TK-10 renal): 56.3 µM
GI50 (UACC-62 melanoma): 21.6 µM
TGI (UACC-62 melanoma): 47 µM
GI50 (HOP-92 NSCLC): 17.1 µM
TGI (HOP-92 NSCLC): 42.4 µM
GI50 (SNB-75 CNS): 34.7 µM
TGI (SNB-75 CNS): > 84.6 µM
GI50 (A549 NSCLC): 25.8 µM
TGI (A549 NSCLC): > 69.6 µM
GI50 (SF-268 CNS): 20.1 µM
TGI (SF-268 CNS): 48.5 µM
GI50 (OVCAR-3 ovarian): 19.3 µM
TGI (OVCAR-3 ovarian): 46.2 µM
GI50 (SF-539 CNS): 16.6 µM
TGI (SF-539 CNS): 32.2 µM

CC(C)(C)c1nc2c(o1)C(=Nc1ccc(F)cc1)c1ccccc1C2=O
TGI (786-0 renal): 52.5 µM
TGI (PC-3 prostate): > 100 µM
TGI (TK-10 renal): 68.3 µM
TGI (UACC-62 melanoma): 6.62 µM
TGI (HOP-92 NSCLC): > 97.7 µM
TGI (SNB-75 CNS): 20 µM
TGI (A549 NSCLC): 22.7 µM
TGI (SF-268 CNS): > 62.9 µM
TGI (OVCAR-3 ovarian): 7.62 µM
TGI (SF-539 CNS): 14.2 µM

CC(=O)n1c(-c2ccc(Cl)cc2)nc2c(c1=O)C(c1ccc(Cl)cc1)c1sc3c(Cl)cccc3c1O2 (stereo not drawn)
GI50 (786-0 renal): 0.48 µM
TGI (786-0 renal): 1.7 µM
GI50 (PC-3 prostate): 0.37 µM
TGI (PC-3 prostate): 2.69 µM
GI50 (TK-10 renal): 0.987 µM
TGI (TK-10 renal): 2.62 µM
GI50 (UACC-62 melanoma): 0.351 µM
TGI (UACC-62 melanoma): 1.6 µM
GI50 (HOP-92 NSCLC): 1.27 µM
TGI (HOP-92 NSCLC): 4.61 µM
GI50 (SNB-75 CNS): 0.454 µM
TGI (SNB-75 CNS): 5.88 µM
GI50 (A549 NSCLC): 0.835 µM
TGI (A549 NSCLC): 2.32 µM
GI50 (SF-268 CNS): 0.684 µM
TGI (SF-268 CNS): 3.24 µM
GI50 (OVCAR-3 ovarian): 0.402 µM
TGI (OVCAR-3 ovarian): 1.5 µM
GI50 (SF-539 CNS): 0.296 µM
TGI (SF-539 CNS): 1.12 µM
